Measured values taken from patent US20240368710A1, “STREAMLINED PLATFORM FOR BACTERIAL IDENTIFICATION AND ANTIBIOTIC SUSCEPTIBILITY TEST” (THE JOHNS HOPKINS UNIVERSITY, priority 2017, published 2024).

Legend:
S. aureus [1] = assay: digital PCR/HRMA AST of mixed sample in 96-well plate; format: cell-based, Staphylococcus aureus; settings: sensitive strain in mix with E. faecalis; 2 hours with and without 8 μg/mL of gentamicin; DNA diluted 60000-fold
Procedure: (§1) FIG. 2 illustrates a protocol for combined ID and AST using digital detection. The protocol begins by dividing the sample into 2 portions; with and without antibiotic followed by brief incubation. DNA isolation can be performed to extract bacterial DNA from the samples. Then, the samples are mixed with PCR mixture and diluted across very large number of isolated small volume reactions so that there is either zero or one bacterial DNA present in any individual reaction to perform digital PCR & digital HRMA. ID is obtained from HRMA based classification on each positive reactions. AST of each target bacterial species is determined by comparing the quantity of the DNA of the target bacteria from the 2 portions which indicates by the total number of positive identification associated to the identified target bacteria species.
(§2) FIG. […] Orange lines represent S. aureus and blue lines represent E. faecalis. (a) Melt curves from the sample incubated without gentamicin (b) Melt curves from the sample incubated with gentamicin (c) AST can be determined using absolute count of each species which bases on the total number of positive reactions of each specific melt curve from HRMA.
(§3) This method (FIG. 2) begins by splitting the sample to incubate with and without antibiotic. […] The species of unidentified bacteria in each positive reactions is then determined preferably using HRMA. […]

E. coli = assay: bulk qPCR/HRMA antibiotic susceptibility test (growth by 16S rDNA Cq); format: cell-based, Escherichia coli; settings: for Cq value compared to the no-drug (growth) controls: 2 hours of incubation with gentamicin (1 μg/mL, FIG. 6A)
Procedure: (§4) FIG. 1 illustrates a protocol for combined ID (Identification of pathogen species) and AST (antibiotic susceptibility test) in bulk format. The protocol begins by dividing the sample into 2 portions; with and without antibiotic followed by brief incubation. Then, the cultured samples are added into PCR mixture to perform qPCR & HRMA. An additional step of DNA isolation may be performed prior to PCR. AST is determined based on Cq differences (ΔCq) and ID is obtained from HRMA based classification.
FIG. 5A-5B illustrates the comparison between the proposed AST approaches to conventional broth microdilutional method. […] (b) Conventional broth microdilutional method of the same drug concentration with overnight incubation.
(§5) FIG. 6A-6C illustrates an integrated broad-scale pathogen identification and growth detection via qPCR and HRMA. (a) Measurement of bacterial growth of E. coli and S. aureus under treatment of gentamicin (1 μg/mL) via qPCR detection of 16S rDNA. The growth status and antibiotic susceptibility of bacteria were determined by comparing the Cq value to the no-drug control. (b) Measured melt curves from amplicons of E. coli and S. aureus for both sensitive and resistant strands. […]
(§6) The inventors have designed an assay protocol to enable combined ID and AST into a single step process (FIG. 1) and using the whole blood sample as an example (FIG. 4). […] The subsequent translation to the microfluidic single-cell assay in described below can facilitate digital diagnostics with enhanced sensitivity, specificity and quantification capability.
The present invention measures bacterial growth by quantifying the bacterial DNA content using qPCR. […] When performing AST, the sample from culture tubes are added to PCR mixes immediately after brief bacterial culture for subsequent detection and quantification of bacterial DNA via qPCR. The quantification cycle (Cq) value indicates the difference in growth rate of different strains under the drug treatment; thereby the antibiotic susceptibility can be determined. […]

E. faecalis = assay: digital PCR/HRMA AST of mixed sample in 96-well plate; format: cell-based, Enterococcus faecalis; settings: sensitive strain in mix with S. aureus; 2 hours with and without 8 μg/mL of gentamicin; DNA diluted 60000-fold
Procedure: as §1, §2, §3

S. aureus [2] = assay: bulk qPCR/HRMA antibiotic susceptibility test (growth by 16S rDNA Cq); format: cell-based, Staphylococcus aureus; settings: 2 hours of incubation with gentamicin (1 μg/mL, FIG. 6A)
Procedure: as §4
as §5, with “(a) Measurement of bacterial growth of E. coli and S. aureus under treatment of gentamicin (1 μg/mL) via qPCR detection of 16S rDNA.” left out
as §6
The present invention measures bacterial growth by quantifying the bacterial DNA content using qPCR. […]

Substance: gentamicin
- count of no-gentamicin controls greater than gentamicin-treated samples (S. aureus [1]): 3-5 folds
- MIC range by ΔCq approach (E. coli; E. coli sensitive strain, gentamicin 0.125-8 μg/mL, FIG. 5): corresponds to standard CLSI MIC value and the conventional method
- Cq value compared to the no-drug (growth) controls (E. coli; resistant strand of E. coli): close to the no-drug controls
- Cq value compared to the no-drug (growth) controls (E. coli; sensitive strand of E. coli): increased Cq value
- count of no-gentamicin controls greater than gentamicin-treated samples (E. faecalis): 3-5 folds
- Cq value compared to the no-drug (growth) controls (S. aureus [2]; resistant strand of S. aureus): close to the no-drug controls
- Cq value compared to the no-drug (growth) controls (S. aureus [2]; sensitive strand of S. aureus): increased Cq value
